Converted amounts (≈) assume the structure as drawn. Read-outs that look alike come from different tables or passages of the source. Marks after values point to notes of the source that are not given here.
Experiments:
[1] = system: S. hominis SP-2; test: Determination of minimum inhibitory concentration (microdilution); format: cell-based; conditions: Staphylococcus hominis, read-out: MIC (minimum inhibitory concentration)
[2] = system: S. epidermidis UC-20207; test: Microtiter-plate adherence assay on polystyrene; format: cell-based; conditions: for Adherence Mean OD550: S. epidermidis UC-20207, 18 h; for inhibition at 0.5 µg/mL / inhibition at 1 µg/mL / inhibition at 2 µg/mL: Staphylococcus epidermidis, UC20207, 18 h, read-out: Adherence % Inhibition
Method: (§1) Briefly, the inoculum was established by the direct colony suspension method using the Prompt™ Inoculation System (Becton Dickinson, Sparks, Md.). The bacteria suspension, which was equal to the turbidity of a 0.5 McFarland standard, was diluted in TSB to a concentration of 1×10^6 colony forming units per ml (CFU/mL). One hundred microliters of the cell suspension was added to flat-bottom polystyrene wells (Corning Costar, Corning, N.Y.) containing 100 μl of TSB, with and without drug. The final inoculum concentration per well was approximately 5×10^5 CFU/mL. The plates were incubated at 37° C. under static conditions in air. At 18 hours (h) post-infection, the optical density of bacterial growth was measured at a wavelength of 595 nm in a microtiter plate reader (Vmax; Molecular Devices, Sunnyvale, Calif.). […] Adherent “sessile” cells then were fixed with 3.7% (v/v) formaldehyde/2% (w/v) sodium acetate and stained with 0.1% (w/v) crystal violet. Excess stain was rinsed off with deionized water and the plates were air-dried for 4 h. The optical density of bacterial adherence was determined at a wavelength of 550 nm. […] To compensate for background absorbance, optical density readings from wells treated with sterile medium, fixative and stain as described above were averaged and then subtracted from all test and control wells. Relative inhibition of adherence or growth was expressed by the following equation: (OD of control well−OD of treated well/OD of control well)×100, where OD is the mean optical density of six replicate wells from two separate experiments (three replicates per experiment). Control was defined as infected, drug-free cultures.
(§2) The primary efficacy variable in this study was the measurement of adherent bacterial cells to polystyrene after 18 h of growth. To determine whether statistically significant differences existed between treatment groups (MIC, ½ MIC, and ¼ MIC) compared with the infected-nontreated controls, the Kruskal-Wallis one-way analysis of variance (ANOVA) was applied for each clinical strain. Statistical significance was defined as p-values ≦0.05. An asterisk (*) was placed by all test values less than or equal to the specified significance level.

[3] = system: S. epidermidis RP62A; test: Microtiter-plate adherence assay on polystyrene; format: cell-based; conditions: 18 h; for Adherence Mean OD550: S. epidermidis RP62A; for inhibition at 0.5 µg/mL / inhibition at 1 µg/mL / inhibition at 2 µg/mL: Staphylococcus epidermidis, RP62A, read-out: Adherence % Inhibition
Method: as §1, §2

[4] = system: S. aureus UC-20206; test: Microtiter-plate adherence assay on polystyrene; format: cell-based; conditions: for Adherence Mean OD550: S. aureus UC-20206, 18 h
Method: (§3) Briefly, the inoculum was established by the direct colony suspension method using the Prompt™ Inoculation System (Becton Dickinson, Sparks, Md.). The bacteria suspension, which was equal to the turbidity of a 0.5 McFarland standard, was diluted in TSB to a concentration of 1×10^6 colony forming units per ml (CFU/mL). One hundred microliters of the cell suspension was added to flat-bottom polystyrene wells (Corning Costar, Corning, N.Y.) containing 100 μl of TSB, with and without drug. The final inoculum concentration per well was approximately 5×10^5 CFU/mL. The plates were incubated at 37° C. under static conditions in air. At 18 hours (h) post-infection, the optical density of bacterial growth was measured at a wavelength of 595 nm in a microtiter plate reader (Vmax; Molecular Devices, Sunnyvale, Calif.). […] Adherent “sessile” cells then were fixed with 3.7% (v/v) formaldehyde/2% (w/v) sodium acetate and stained with 0.1% (w/v) crystal violet. Excess stain was rinsed off with deionized water and the plates were air-dried for 4 h. The optical density of bacterial adherence was determined at a wavelength of 550 nm. Preliminary studies were performed to determine the optimal wavelengths for measuring growth turbidity and stained adherent cells (data not shown). To compensate for background absorbance, optical density readings from wells treated with sterile medium, fixative and stain as described above were averaged and then subtracted from all test and control wells. Relative inhibition of adherence or growth was expressed by the following equation: (OD of control well−OD of treated well/OD of control well)×100, where OD is the mean optical density of six replicate wells from two separate experiments (three replicates per experiment). Control was defined as infected, drug-free cultures.
as §2

[5] = system: S. aureus UC-20205; test: Microtiter-plate adherence assay on polystyrene; format: cell-based; conditions: for Adherence Mean OD550: S. aureus UC-20205, 18 h
Method: as §3, §2

[6] = system: S. epidermidis UC-20208; test: Microtiter-plate adherence assay on polystyrene; format: cell-based; conditions: for Adherence Mean OD550: S. epidermidis UC-20208, 18 h; for inhibition at 0.5 µg/mL / inhibition at 1 µg/mL / inhibition at 2 µg/mL: Staphylococcus epidermidis, UC20208, 18 h, read-out: Adherence % Inhibition
Method: as §3, §2

[7] = system: S. aureus UC-20205; test: Determination of minimum inhibitory concentration (microdilution); format: cell-based; conditions: Staphylococcus aureus, UC20205, 18 h
[8] = system: bacterial adherence; conditions: subinhibitory concentrations; other investigators; cited from earlier work
[9] = Staphylococcus aureus, UC20206, 18 h, read-out: Adherence % Inhibition
[10] = Staphylococcus aureus, UC20205, 18 h, read-out: Adherence % Inhibition

| SMILES | Adherence Mean OD550 ([2]; drug 0.5 μg/ml) | Adherence Mean OD550 ([2]; drug 2.0 μg/ml (MIC)) | inhibition at 0.5 µg/mL [2] [%] | inhibition at 1 µg/mL [2] [%] | inhibition at 2 µg/mL [2] [%] | Adherence Mean OD550 ([3]; drug 1.0 μg/ml) | Adherence Mean OD550 ([3]; drug 2.0 μg/ml (MIC)) | inhibition at 0.5 µg/mL [3] [%] | inhibition at 1 µg/mL [3] [%] | inhibition at 2 µg/mL [3] [%] | Adherence Mean OD550 ([4]; drug 1.0 μg/ml) | inhibition at 1 µg/mL [4, 9] [%] | Adherence Mean OD550 ([5]; drug 0.5 μg/ml) | Adherence Mean OD550 ([5]; drug 1.0 μg/ml) | inhibition at 0.5 µg/mL [5, 10] [%] | inhibition at 1 µg/mL [5, 10] [%] | Adherence Mean OD550 ([6]; drug 0.5 μg/ml) | Adherence Mean OD550 ([6]; drug 1.0 μg/ml) | Adherence Mean OD550 ([6]; drug 2.0 μg/ml (MIC)) | inhibition at 0.5 µg/mL [6] [%] | further results |
| --- | --- | --- | --- | --- | --- | --- | --- | --- | --- | --- | --- | --- | --- | --- | --- | --- | --- | --- | --- | --- | --- |
| CC(=O)NC[C@H]1CN(c2ccc(N3CCOCC3)c(F)c2)C(=O)O1 [Linezolid, (S)-N-[[3-[3-fluoro-4-(4-morpholinyl)phenyl]-2-oxo-5-oxazolidinyl]methyl]acetamide] | 0.513 ± 0.227* | 0.010 ± 0.005* | 76.9 | 99.7 | 99.5 | 0.002 ± 0.002* | 0.001 ± 0.001* | 95.5 | 99.9 | 100 | 0.001 ± 0.002* | 99.4 | 0.013 ± 0.007* | 0.005 ± 0.007* | 97.6 | 99 | 1.342 ± 0.791 | 0.001 ± 0.002* | 0.000 ± 0.001* | 26.7 | MIC ([1]; SP2, S. hominis SP-2, 18 h): 2 µg/mL (≈ 5.93 µM); Adherence Mean OD550 ([2]; drug 1.0 μg/ml): 0.007 ± 0.002*; Adherence Mean OD550 ([3]; drug 0.5 μg/ml): 0.125 ± 0.133*; Adherence Mean OD550 ([4]; drug 2.0 μg/ml): 0.002 ± 0.002*; Adherence Mean OD550 ([4]; drug 4.0 μg/ml): 0.003 ± 0.003*; inhibition at 2 µg/mL [4, 9]: 99.3%; inhibition at 4 µg/mL [4, 9]: 98.5%; Adherence Mean OD550 ([5]; drug 2.0 μg/ml): 0.001 ± 0.001*; inhibition at 2 µg/mL [5, 10]: 99.7%; inhibition at 1 µg/mL [6]: 99.9%; inhibition at 2 µg/mL [6]: 100%; MIC [7]: 2 µg/mL (≈ 5.93 µM) |
| CN[C@H](CC(C)C)C(=O)N[C@H]1C(=O)N[C@@H](CC(N)=O)C(=O)N[C@H]2C(=O)N[C@H]3C(=O)N[C@H](C(=O)N[C@H](C(=O)O)c4cc(O)cc(O)c4-c4cc3ccc4O)[C@H](O)c3ccc(c(Cl)c3)Oc3cc2cc(c3O[C@@H]2O[C@H](CO)[C@@H](O)[C@H](O)[C@H]2O[C@H]2C[C@](C)(N)[C@H](O)[C@H](C)O2)Oc2ccc(cc2Cl)[C@H]1O [Vancomycin] | 2.177 ± 0.424 | 0.001 ± 0.002* | 0 | 0 | 100 | 1.728 ± 0.952 | 0.000 ± 0.002* | 0 | 36.6 | 100 | 0.000 ± 0.003* | 9.99 | 0.012 ± 0.013* | 0.000 ± 0.001* | 98 | 100 | 2.165 ± 0.150 | 2.716 ± 0.400 | 0.000 ± 0.001* | 0 | MIC ([1]; SP2, 18 h): 1 µg/mL (≈ 0.69 µM); Adherence Mean OD550 ([4]; drug 0.25 μg/ml): 0.192 ± 0.020; Adherence Mean OD550 ([4]; drug 0.5 μg/ml): 0.267 ± 0.044; inhibition at 0.25 µg/mL [4, 9]: 12.5%; inhibition at 0.5 µg/mL [4, 9]: 0%; Adherence Mean OD550 ([5]; drug 0.25 μg/ml): 0.730 ± 0.202; inhibition at 0.25 µg/mL [5, 10]: 0%; inhibition at 1 µg/mL [6]: 0%; inhibition at 2 µg/mL [6]: 100%; activity against bacterial adherence [8]: minimal or no activity against bacterial adherence |
